This is an account of results in ChEMBL document CHEMBL1201862, “PubChem BioAssay data set” (2004).

Test systems include A498; CCRF-CEM; DLD-1; DMS-273; EKVX; HOP-92; HT-29; IGROV-1; LXFL 529; Malme-3M; NCI-H522; RPMI-8226; SF-295; SK-MEL-28; SNB-75; U-251; UACC-257; RXF 393; MDA-MB-231; MDA-MB-435.
What all share (test): NCI-60 cell line screen, 48 h

Each structure is given as a SMILES string.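 All cell lines were grown in 96-well plates and treated with compound for 48 hours. GI50 is the concentration that inhibits growth by half.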 Calls of active or inactive are those of the source. Cut-off read from the data, not from the text of the source: active = GI50 up to about 1.1 µM and inactive = higher.

With `CC1(C)O[C@@H](CC/C=C/CO)[C@H](CC/C=C/CO)O1`, the GI50 in the assay on A498, in the assay with CCRF-CEM, with DLD-1, with DMS-273, in the assay on EKVX and in the assay with HOP-92 was > 100 µM (inactive) in each case. The GI50 with HT-29, with IGROV-1, in the assay with LXFL 529, in the assay with Malme-3M, in the assay on NCI-H522 and in the assay on RPMI-8226 was > 100 µM (inactive) in each case. Also, the GI50 with SF-295, in the assay on SK-MEL-28, in the assay on SNB-75, in the assay on U-251 and in the assay with UACC-257 was > 100 µM (inactive) throughout.
With `O=C(/C=C\c1cccc2ccccc12)c1ccc(F)cc1`, the GI50 in the assay on A498 is 29.7 µM (inactive); in the assay with CCRF-CEM, 13.6 µM (inactive); with DLD-1 it was 19.1 µM (inactive); in the assay with DMS-273, 15.2 µM (inactive); with EKVX, 18.8 µM (inactive); in the assay with HOP-92 it was 11.9 µM (inactive). Also, the GI50 was 17.3 µM (inactive) with HT-29; 15.3 µM (inactive) in the assay on IGROV-1; 17.1 µM (inactive) in the assay on LXFL 529; 17.7 µM (inactive) with Malme-3M; 20.5 µM (inactive) in the assay on NCI-H522; 4.21 µM (inactive) in the assay with RPMI-8226. Further, the GI50 in the assay on SF-295 is 19.3 µM (inactive); in the assay with SK-MEL-28, 13.2 µM (inactive); in the assay with SNB-75 it was 30.5 µM (inactive); with U-251 it was 15.8 µM (inactive); in the assay with UACC-257, 17.6 µM (inactive).
For `CC(=O)C=C1Nc2ccccc2N1`, the GI50 in the assay on CCRF-CEM, with DLD-1, in the assay on EKVX, in the assay with HT-29, with IGROV-1 and with LXFL 529 was > 100 µM (inactive) throughout. Also, the GI50 in the assay with Malme-3M, in the assay with NCI-H522, with RPMI-8226, in the assay on RXF 393, in the assay on SF-295 and in the assay with SK-MEL-28 was > 100 µM (inactive) each time. Besides, the results for the GI50 with SNB-75, with U-251 and with UACC-257 were 36.9 µM (inactive), > 100 µM (inactive) and > 100 µM (inactive), respectively.
Take `CN(C)CC1CCCC(CN2CCCCC2)C1=O` (configuration not stated): the GI50 in the assay with A498 is 38.5 µM (inactive); in the assay on CCRF-CEM, 0.762 µM (active); with DLD-1, 2.98 µM (inactive); in the assay on DMS-273, 22.1 µM (inactive); in the assay on EKVX, 12.5 µM (inactive); with HOP-92, 1.96 µM (inactive). For the same compound, the GI50 with HT-29 is 5.4 µM (inactive); in the assay with IGROV-1, 17 µM (inactive); in the assay with MDA-MB-231, 15.1 µM (inactive); in the assay with MDA-MB-435, 17.1 µM (inactive); in the assay with Malme-3M, 3.33 µM (inactive); with NCI-H522, 0.0764 µM (active). Also, the GI50 was 0.158 µM (active) with RPMI-8226; 12.8 µM (inactive) in the assay with RXF 393; > 93.5 µM (inactive) in the assay with SF-295; 13.9 µM (inactive) in the assay on SK-MEL-28; 19.4 µM (inactive) with SNB-75; > 54.6 µM (inactive) with U-251. Also, in the assay with UACC-257, the GI50 was 14.6 µM (inactive).
`O=C(O)CCN(CCCN(CCC(=O)O)CCC(=O)O)CCC(=O)O`: the GI50 in the assay on A498, in the assay on CCRF-CEM, in the assay on DLD-1, with DMS-273, with EKVX and with HOP-92 was > 100 µM (inactive) in each case. Moreover, the GI50 in the assay with HT-29, in the assay with IGROV-1, with LXFL 529, in the assay on Malme-3M, in the assay on NCI-H522 and with RPMI-8226 was > 100 µM (inactive) in each case. In addition, the GI50 with SF-295 is > 100 µM (inactive); in the assay on SK-MEL-28 it was > 100 µM (inactive); in the assay on SNB-75 it was 74.8 µM (inactive); with U-251 it was > 100 µM (inactive).
As to `N#C/C(N)=N/c1ccccc1`, the GI50 in the assay with A498, with CCRF-CEM, in the assay on DLD-1, in the assay with DMS-273, in the assay with EKVX and in the assay with HOP-92 was > 100 µM (inactive) in each case. In addition, the GI50 in the assay with HT-29, with IGROV-1, with LXFL 529, with Malme-3M, in the assay on NCI-H522 and with RPMI-8226 was > 100 µM (inactive) throughout. For the same compound, the GI50 in the assay on SF-295, in the assay with SK-MEL-28, with SNB-75 and with U-251 was > 100 µM (inactive) throughout.
For the compound `CN(C(=O)C12C3C4C1C1C4(C(=O)C45C6C7C4C4C5C6C74C)C3C12C)C(C)(C)C` (configuration not stated), the GI50 in the assay on A498 was 55.3 µM (inactive); in the assay on CCRF-CEM it was 32.1 µM (inactive); in the assay with DLD-1, 56.5 µM (inactive); in the assay with DMS-273, 53.6 µM (inactive); with EKVX it was > 100 µM (inactive); in the assay with HOP-92 it was 28.6 µM (inactive). Further, the GI50 in the assay with HT-29 is 17.5 µM (inactive); in the assay with IGROV-1, > 100 µM (inactive); in the assay on LXFL 529 it was 37.8 µM (inactive); in the assay with Malme-3M, > 100 µM (inactive); with NCI-H522 it was 48.6 µM (inactive); in the assay on SF-295, > 100 µM (inactive). In addition, the GI50 with SK-MEL-28 was > 100 µM (inactive); in the assay with SNB-75, > 100 µM (inactive); in the assay on U-251 it was 79.3 µM (inactive); in the assay with UACC-257 it was 32.5 µM (inactive).
With `COc1cccc(C=O)c1C(=O)c1cc(O)ccc1O`, the GI50 was > 44.9 µM (inactive) in the assay on A498; 3.91 µM (inactive) in the assay on CCRF-CEM; 16.3 µM (inactive) with DLD-1; > 58.7 µM (inactive) in the assay with DMS-273; 18.5 µM (inactive) in the assay on EKVX; 17.7 µM (inactive) in the assay with HOP-92. For the same compound, the GI50 is > 49.2 µM (inactive) in the assay with HT-29; > 44.2 µM (inactive) with IGROV-1; 20.4 µM (inactive) in the assay on Malme-3M; > 10 µM (inactive) in the assay on NCI-H522; 17.9 µM (inactive) in the assay with RXF 393; > 100 µM (inactive) with SF-295. The GI50 in the assay with SK-MEL-28 is 34.1 µM (inactive); in the assay on SNB-75 it was > 95.3 µM (inactive); in the assay on U-251, > 100 µM (inactive); with UACC-257 it was 20.1 µM (inactive).
As for `CC(=O)c1ccc(NC(=O)COC(=O)c2cccc3c(=O)c4ccccc4[nH]c23)cc1`, the GI50 in the assay with A498 is 44 µM (inactive); in the assay with CCRF-CEM it was > 100 µM (inactive); in the assay on DLD-1, 54 µM (inactive); in the assay on EKVX it was > 100 µM (inactive); in the assay with HOP-92, 25.9 µM (inactive); with HT-29, 45.5 µM (inactive). Also, the GI50 was 37.4 µM (inactive) with IGROV-1; 21.9 µM (inactive) in the assay on LXFL 529; 42.5 µM (inactive) in the assay with Malme-3M; 72.6 µM (inactive) in the assay with NCI-H522; 18 µM (inactive) in the assay on RXF 393; 15.8 µM (inactive) in the assay on SF-295. Moreover, the GI50 was 40.6 µM (inactive) in the assay on SK-MEL-28, 10.1 µM (inactive) with SNB-75, 15.5 µM (inactive) with U-251 and 57.7 µM (inactive) in the assay with UACC-257.
On to `CCOC(=O)c1cc(/C=C/C(C)=C/C(=O)OC)n(C)c1C`, for which the GI50 was > 100 µM (inactive) in the assay on A498; 61.5 µM (inactive) with CCRF-CEM; 67.8 µM (inactive) with DLD-1; > 100 µM (inactive) in the assay with DMS-273; > 100 µM (inactive) with EKVX; > 100 µM (inactive) in the assay on HOP-92. The GI50 in the assay on HT-29 is 40 µM (inactive); with IGROV-1, > 100 µM (inactive); in the assay on LXFL 529, 91.6 µM (inactive); with Malme-3M, > 100 µM (inactive); in the assay with NCI-H522, 76 µM (inactive); in the assay with RPMI-8226 it was 36.2 µM (inactive). In addition, the GI50 in the assay with SF-295 was > 100 µM (inactive); with U-251 it was > 100 µM (inactive); in the assay with UACC-257 it was 78.2 µM (inactive).
`CC(C)N(C(=O)C12C3C4C1C1C2C3C41C(O)C(C)(C)C)C(C)C` (configuration not stated): the GI50 in the assay with A498 was > 50 µM (inactive); in the assay on CCRF-CEM, > 50 µM (inactive); in the assay on DMS-273, > 50 µM (inactive); in the assay on EKVX, > 50 µM (inactive); with HOP-92, 34.7 µM (inactive); in the assay with HT-29 it was > 50 µM (inactive). Besides, the GI50 in the assay with IGROV-1, in the assay with LXFL 529, in the assay on Malme-3M, in the assay on NCI-H522, in the assay on SF-295 and in the assay with SK-MEL-28 was > 50 µM (inactive) throughout. Also, the values for the GI50 in the assay on SNB-75 and in the assay on U-251 were 26.2 µM (inactive) and > 50 µM (inactive), respectively.
As to `CC[N+](CC)(CC)Cc1cc2ccccc2n1C(=O)OC`, the GI50 in the assay with CCRF-CEM, in the assay on DLD-1, in the assay on DMS-273, in the assay on HOP-92, with HT-29 and in the assay with IGROV-1 was > 100 µM (inactive) throughout. Also, the GI50 in the assay on LXFL 529, in the assay on Malme-3M, with NCI-H522, with RPMI-8226, in the assay on SF-295 and in the assay with SK-MEL-28 was > 100 µM (inactive) throughout. Also, the GI50 with SNB-75 was 87.9 µM (inactive); with U-251, > 100 µM (inactive); in the assay on UACC-257, > 100 µM (inactive).
